Test results from patent publication US20080146555A1, “Uses of Kinase Inhibitors and Compositions Thereof” (GPC Biotech, Inc, priority 2004, published 2008).
pIC50: −log10 of the molar value. Several values for one entry are separate records, joined by “and”; a condition that tells them apart may be missing. Equal values may be shown once.

Columns and labels:
[1] = test system: NCI panel of 60 cell lines; assay: cells; settings: Homo sapiens, 60 cell, 48 h, read-out: NCI panel MG-MID (Mean-Graph Mid-point, average IC50 over panel), 48 h, SRB; IC50 <10 nM counted as 10 nM
From the text: (§1) The evaluation of compounds at the National Cancer Institute in their panel of 60 cell lines provides a wealth of information regarding efficacy in a wide range of tumor types and genetic backgrounds. Included within this panel are cell lines derived from leukemia, melanoma and cancers of the lung, colon, brain, ovary, breast, prostate and kidney. Use of this panel provides a measure of the efficacy of compounds in cells with alterations in many genes that are associated with neoplastic transformation including p53 and Her2/Neu as well as those involved in metabolism and those which confer multi-drug resistance. The data generated in these cell lines with the protocol described below can be used to evaluate the activity of compounds.
(§2) Cells were grown in RPMI-1640 10% FCS and plated in 96 well micro-titer plates at densities ranging from 5,000 to 40,000 cells/well. The plates were incubated for 24 hours at 37° C., 5% CO2 for 24 hours. Media containing twice the desired final concentration of the compound (5 doses spanning 4 logs) was prepared and 100 μl was added to each well containing 100 μl media plus cells to yield the desired final concentration. The plates were then incubated for an additional 48 hours.
(§3) The effect of the compound on cellular viability was determined with the Sulforhodamine B (SRB) assay, which measures total protein. Cells were fixed with cold TCA to a final concentration of 10% and incubated at 4° C. for 60 minutes. The supernatant was discarded and the plates were washed five times with water and air-dried. SRB solution at […] in 1% acetic acid was added to each well and the plates were incubated for 10 minutes at room temperature. The plates were washed five times with 1% acetic acid and air-dried. The bound stain was solubilized with 10 mM trizma base and the absorbance was read on a plate reader at […].

HCT-116 cells [2] = assay: Calcein AM viability assay, HCT-116; assay type: cell-based; settings: Homo sapiens
Experimental: (§4) The potency of the subject kinase inhibitors, as measured by loss of cellular viability, was determined with the Calcein AM assay (Molecular Probes). Calcein AM is a substrate of intracellular esterases, which is cleaved only in viable cells to generate a fluorescent product that can be quantified with a fluorescent plate reader. The fluorescent signal is proportional to the number of viable cells, and thus loss of signal in response to the exposure of cells to the subject kinase inhibitors correlates with a loss of viability. This assay not only distinguishes cell cycle arrest, in which cells may still by viable, from loss of viability, and is thus well suited for the evaluation of the subject kinase inhibitors. A compound that is a potent cytotoxic agent may cause significant loss of cell viability in such an assay.
(§5) Cellular IC50's were determined in the human colorectal carcinoma cell line, HCT-116, and the normal human fibroblast, IMR90. Protein adjusted IC50's were also determined in HCT-116. Results of such viability assays are presented in Table 2 (HCT-116 (viability/protein adjusted) and IMR-90). IC50's (μM, non-protein adjusted) for the viability assay against HCT-116 cells are shown for further compounds of the invention in Table 4.
(§6) HCT-116 or IMR90 cells were recovered from sub-confluent plates by trypsinization and 1,000 or 4,000 cells, respectively, were plated in 24-well dishes and incubated overnight at 37° C., 5% CO2. HCT-116 cells were cultured in RPMI-1640, 10% FCS, and IMR90 cells were cultured in Minimum Essential Medium-alpha, 10% FCS. After overnight incubation to allow adherence, the media was aspirated from each well and replaced with media containing a test compound at a concentration from 0 to 250 nM, spanning a total of 7 doses. The plates were returned to the incubator and cultured for an additional 72 hours (3 days). […] After 72-hours incubation with the test compound, the cells were washed twice with 1×PBS, taking special care to remove all residual buffer.
(§7) A 5 μM Calcein AM solution was prepared by dissolving a 50 μg aliquot of Calcein (Molecular Probes catalog #C3100) in 50 μl DMSO. After the Calcein had completely dissolved (10 minutes at room temperature), it was diluted into 10 ml PBS. Calcein/PBS (0.5 ml) was added to each well. The plates were incubated for 75 minutes at 37° C. (protected from light) and the fluorescent signal was read on a fluorescent plate reader (excitation 485/20 and emission 530/25).

[3] = target: protein kinase C (mixed isozymes); assay: Protein kinase C TCA precipitation assay; assay type: biochemical, rat; settings: Table 3; read-out: PKC IC50
Experimental: Enzymes: Cdc2/cyclin B was obtained from commercial sources. Cdk2/his-cyclin Eshort was expressed in Sf9 cells. Cdk2/cyclin A, cdk4/cyclin D1, and cdk6/cyclin D2 were expressed in Sf9 cells. Protein kinase A (catalytic subunit, from bovine heart) and protein kinase C (mixed isozymes from rat brain) were obtained from commercial sources.
Protein kinase C and protein kinase A were assayed using a TCA precipitation assay with Histone H1 as a substrate. For protein kinase A, the final assay contained 50 mM Tris, 10 mM MgCl2, 1 mM dithiothreitol, pH 7.5, 12 μM adenosine triphosphate, 10% (v/v) dimethylsulfoxide (from compounds), 20 μg Histone H1, 2 μCi [γ-^32P] adenosine triphosphate, 0.2 U protein kinase A in a 100 μL assay. A protein kinase C assay contained 50 mM Tris, 10 mM MgCl2, 1 mM dithiothreitol, 0.8 mM CaCl2, pH 7.5, 5 μM adenosine triphosphate, 10% (v/v) dimethylsulfoxide (from compounds), 20 μg Histone H1, 2 μCi [γ-^32P] adenosine triphosphate, 0.01 U protein kinase C in a 50 μL assay. The assays were started by the addition of enzyme, allowed to react for 10 min at 30° C., and stopped by adding 0.4 volumes of 237 mM disodium ethylenediamine tetraacetate, 105 mM adenosine triphosphate, pH 8.0. […] The filters were washed ten times with 25% (w/v) trichloroacetic acid, and the amount of incorporated [^32P]phosphate was determined by adding 100 μl Microscint and scintillation counting.

[4] = test system: adriamycin resistant cell line (ADR-res); assay: NCI panel, adriamycin resistant cell line, SRB assay; assay type: cell-based; settings: Homo sapiens, 48 h
From the text: as §1, §2, §3

HCT-116 cells [5] = assay: Clonogenic survival assay with HCT-116 cells; assay type: cell-based; settings: Homo sapiens
Experimental: This assay was used to determine the concentration of a compound that results in irreversible loss of viability after a specified period of exposure. Essentially, cells are exposed to compound for a period of […], and are then transferred to compound-free growth medium. After continued incubation in the compound-free medium for a number of days, the number of colonies recovered is counted as an estimate of the number of surviving cells.
Media (RPMI-1640, 10% FCS, pen/strep) was pre-warmed to 37° C. in a water bath. Cells were incubated and grown at 37° C., 5% CO2. Cells were recovered by trypsinization from sub-confluent plates and counted using a hemocytometer. 1×10^4 cells were plated in 25 mls of media in a 15 cm tissue culture dish. […] were set up for each test compound, and were incubated overnight at 37° C. The compound was diluted into media at 7 concentrations and the media on the cells was replaced with that containing the test compound. Two plates were set up for each concentration of the compound to be tested, as well as two control plates without compound. Plates were incubated as above for […], media was removed and replaced with fresh media, and the plates were incubated an additional 7 days and washed with PBS. Colonies were stained with crystal violet solution (0.4% crystal violet, 20% ethanol) for 5 minutes, washed twice with distilled water, and counted.

[6] = test system: normal human fibroblast, IMR90; assay: Calcein AM viability assay, IMR90; assay type: cell-based; settings: IMR-90, Calcein AM, 72 h
Experimental: as §4, §5, §6, §7

HT29/mit = assay: SRB cytotoxicity, mitoxanthrone resistant cells; assay type: cell-based, human
Experimental: (§8) In these experiments, the P-glycoprotein expressing NCI-Adr resistant subline (Vickers et al., 1989. Mol Endocrinology 3 (1):157-164) was used. […] Briefly, cells were plated in 96 well dishes 24 hours prior to compound addition. Where noted, they were exposed to verapamil for 4 hours prior to compound addition and then throughout the treatment period (72 hours). The assay was terminated with the addition of cold TCA to a final concentration of 10% and the plates were incubated for one hour at 4° C. The plates were then washed 5 times with water and 100 μl of a Sulforhodamine B solution (4%) was added to each well. The plate was then incubated for 10 minutes at room temperature before removal of unbound dye by washing with 1% acetic acid. The bound dye was solubilized with 10 mM Trizma base and the absorbance read at OD570.
(§9) The parental non-mutated cell line HT29 was used as a control.
(§10) Z. Cytotoxicity was measured using the SRB assay according to Shekan et al. as described above in Example 1A.

HT29 = assay: SRB cytotoxicity, HT29 parental cells; assay type: cell-based; settings: Homo sapiens, HT-29, 72 h
Experimental: as §8, with “acid.” for “acid. The bound dye was solubilized with 10 mM Trizma base and the absorbance read at OD570.”
as §9, §10

CEM/C2 = assay: SRB cytotoxicity, camptothecin resistant cells; assay type: cell-based, human
Experimental: as §8, with “acid.” for “acid. The bound dye was solubilized with 10 mM Trizma base and the absorbance read at OD570.”
(§11) The Camptothecin resistant CEM/C2 cells were derived from the T lymphoblastoid leukemia cell line CCRF/CEM by selection in the presence of Camptothecin in vitro (Kapoor et al., 1995. Oncology Research 7; 83-95, ATCC).
(§12) The effects of A37 and B16 were evaluated in the CCRF/CEM and CEM/C2 cells using the same SRB assay as described above, with 72-hour drug exposure.

CEM = assay: SRB cytotoxicity, CEM parental cells; assay type: cell-based; settings: Homo sapiens, CCRF-CEM, 72 h
Experimental: as §8, with “acid.” for “acid. The bound dye was solubilized with 10 mM Trizma base and the absorbance read at OD570.”
as §11, §12

A129 cp80 = assay: SRB cytotoxicity, cisplatin resistant cells; assay type: cell-based, human
A129 = assay: SRB cytotoxicity, A129 parental cells; assay type: cell-based, human; settings: 72 h
Experimental: as §8, with “acid.” for “acid. The bound dye was solubilized with 10 mM Trizma base and the absorbance read at OD570.”
The parental non-mutated cell line A129 was used as a control.

CDKs = assay: Kinase panel, CDKs (average/range); assay type: biochemical; settings: comparison drug; read-out: average IC50 for CDK1, CDK2, and CDK4
NCI-Adr resistant = assay: SRB cytotoxicity, P-glycoprotein expressing cells with and without verapamil; assay type: cell-based; settings: Homo sapiens, NCI/ADR-RES, 72 h, SRB
Experimental: as §8, with “acid.” for “acid. The bound dye was solubilized with 10 mM Trizma base and the absorbance read at OD570.”

1A9-PTX10 = assay: SRB cytotoxicity, tubulin mutated paclitaxel-resistant cells; assay type: cell-based, human; settings: Homo sapiens, 1A9/ptx-10; 72 h, SRB
Experimental: as §8, with “acid.” for “acid. The bound dye was solubilized with 10 mM Trizma base and the absorbance read at OD570.”
(§13) The tubulin mutated, paclitaxel-resistant human ovarian carcinoma cell line 1A9-PTX10 and its parental paclitaxel-sensitive cell line 1A9 were derived from the A2780 human ovarian carcinoma cell line (J Biol Chem (1997) 272, 17118-17124).

1A9 = assay: SRB cytotoxicity, 1A9 parental cells; assay type: cell-based; settings: Homo sapiens, 72 h
Experimental: as §8, with “acid.” for “acid. The bound dye was solubilized with 10 mM Trizma base and the absorbance read at OD570.”
as §13

**Q.** With CC(C)N1CCN(CCOc2ccc(-c3[nH]nc4c3C(=O)c3c(NC(=O)NN5CCOCC5)cccc3-4)cc2)CC1 [E] as the compound, how does the pIC50 [1] read?
**A.** > 7.00

**Q.** What about the pIC50 (HCT-116 cells [2]; HCT-116, 72 h, Calcein AM, 72 h, read-out: HCT-116 IC50 Viability) of the same compound?
**A.** > 7.00

**Q.** What about the pIC50 (HCT-116 cells [2]; HCT-116, plus 1 mg/ml alpha acidic glycoprotein and 45 mg/ml human serum albumin, read-out: HCT-116 IC50 Protein adjusted) of the same compound?
**A.** > 6.00

**Q.** And the pIC50 [3]?
**A.** > 5.00

**Q.** What about the pIC50 [4] of the same compound?
**A.** > 6.00

**Q.** And the pIC50 (HCT-116 cells [5]; 24 h exposure, read-out: HCT-116 IC50 Clonogenic 24 h)?
**A.** > 7.00

**Q.** What about the pIC50 (HCT-116 cells [5]; 72 h exposure, read-out: HCT-116 IC50 Clonogenic 72 h) of the same compound?
**A.** > 7.00

**Q.** What about the pIC50 [6] of the same compound?
**A.** > 7.00

**Q.** With O=C1c2c(O)ccc(O)c2C(=O)c2c(NCCNCCO)ccc(NCCNCCO)c21 [Mitoxanthrone, reference compound] as the compound, how does the “RR (relative resistance) HT29/mit vs HT29” value (HT29/mit) read?
**A.** 153.1

**Q.** What about the pIC50 (HT29/mit; Homo sapiens, HT-29, 72 h, SRB) of the same compound?
**A.** 3.73

**Q.** What about the pIC50 (HT29) of the same compound?
**A.** 5.91

**Q.** How did the “RR (relative resistance) CEM/C2 vs CEM” value (CEM/C2) turn out when CC[C@@]1(O)C(=O)OCc2c1cc1n(c2=O)Cc2cc3ccccc3nc2-1 [Camptothecin, reference compound] was run?
**A.** 1378

**Q.** What about the pIC50 (CEM/C2; Homo sapiens, CEM/C2, 72 h, SRB) of the same compound?
**A.** 5.32

**Q.** And the pIC50 (CEM)?
**A.** 8.46

**Q.** What does the source list for N.N.[Cl][Pt][Cl] [Cisplatin, cis-diamminedichloroplatinum (II), reference compound]?
**A.** RR (relative resistance) A129 cp80 vs A129 (A129 cp80): 51.6; pIC50 (A129 cp80; 72 h, SRB): 4.78; pIC50 (A129): 6.49

**Q.** With CN1CC[C@H](c2c(O)cc(O)c3c(=O)cc(-c4ccccc4Cl)oc23)[C@H](O)C1 [Flavopiridol, reference compound] as the compound, how does the pIC50 (CDKs) read?
**A.** ~6.19 and 6.19

**Q.** With CC(=O)O[C@@]12CO[C@@H]1C[C@H](O)[C@@]1(C)C(=O)[C@H](O)C3=C(C)[C@@H](OC(=O)[C@H](O)[C@@H](NC(=O)OC(C)(C)C)c4ccccc4)C[C@@](O)([C@@H](OC(=O)c4ccccc4)[C@H]21)C3(C)C [Taxotere, N-debenzoyl-N-tert-butoxycarbonyl-10-deacetyl paclitaxel, reference compound] as the compound, how does the pIC50 (NCI-Adr resistant; verapamil 12.5 μg/ml) read?
**A.** 7.44

**Q.** And the pIC50 (NCI-Adr resistant; without verapamil)?
**A.** 5.48

**Q.** What about the pIC50 (1A9-PTX10) of the same compound?
**A.** 6.80

**Q.** And the pIC50 (1A9)?
**A.** 8.76
